Results on 6 compounds are retold here after patent US4314028A, “Fermentation process for producing tallysomycin compounds” (priority 1980, dated 1982).

Series [1] deals with Aspergillus fumigatus IAM 2593. The series can be described thus: MIC, two-fold agar dilution method. Conditions: Sabouraud agar. Type of series: cell-based. Here is the method:
(§1) The minimum inhibitory concentrations (MIC) of the semibiosynthetic tallysomycin derivatives of the present invention were determined against fungi and gram-positive, gram-negative and acid-fast bacteria by the two-fold agar dilution method. Nutrient agar was used for bacteria and Sabouraud agar for fungi. The results are shown in the table below comparatively with tallysomycin A and B.
Background: In agar dilution the substance is mixed into plates at graded concentrations.

The test system of another series is Proteus mirabilis A9554. The series can be described thus: MIC, two-fold agar dilution method. It counts as cell-based. The note with it: nutrient agar. Here is the method: as §1
In another series the test system is Mycobacterium 607. Put plainly: MIC, two-fold agar dilution method. Type of series: cell-based. The note with it: nutrient agar. Here is the method:
as §1

The next series has as its system Escherichia coli NIHJ. Put plainly: MIC, two-fold agar dilution method. It counts as cell-based. Conditions: nutrient agar. Here is the method:
as §1

The subject of series [2] is Staphylococcus aureus Smith. Put plainly: MIC, two-fold agar dilution method. It counts as cell-based. The note with it: nutrient agar. Here is the method: as §1
Series [3] concerns Candida albicans IAM 4888. Put plainly: MIC, two-fold agar dilution method. It counts as cell-based. Conditions: Sabouraud agar. Here is the method:
as §1

The test system of another series is Sarcina lutea PCI1001. Put plainly: MIC, two-fold agar dilution method. Type of series: cell-based. Conditions: nutrient agar. Here is the method: as §1
Series [4] deals with Bacillus subtilis PCI 219. The series can be described thus: MIC, two-fold agar dilution method. It counts as cell-based. Conditions: nutrient agar. Here is the method:
as §1

The subject of series [5] is Mycobacterium smegmatis strain M6-3. The series can be described thus: Relative antibacterial potency, paper-disc agar diffusion method. It counts as cell-based. Conditions: relative to tallysomycin A standard=1000 mcg/mg. Here is the method:
The relative antibacterial potencies (tallysomycin A standard=1000 mcg/mg) of the tallysomycin derivatives were determined by the paper-disc agar diffusion method using Mycobacterium smegmatis strain M6-3 as the assay organism.
(In agar diffusion tests the substance spreads into inoculated agar from a disc or well.)

Series [6] relates to lysogenic bacterium E. coli W1709 (λ). Put plainly: Prophage induction of lysogenic bacterium (ILB activity). Type of series: cell-based. The note with it: t/c ratio of plaque counts greater than 3.0. Here is the method:
The activity of prophage induction of lysogenic bacterium E. coli W1709 (λ) was determined according to the method disclosed by Lein et al. in Nature 196: 783-784 (1962). The plaque count was made on the agar plate containing test compound (t) and control plate (c). A t/c ratio of the plaque counts of greater than 3.0 was defined to be a significant level and lysogenic induction activity (ILB activity) was expressed by the minimum inducible concentration of the test compound.

Another series has as its system Melanotic melanoma B16. Put plainly: Antitumor activity in mice, melanotic melanoma B16. Type of series: in vivo, BDF1 mice. The note with it: copper-chelated form unless otherwise stated. The source says: (§2) The antitumor activity of the tallysomycin derivatives was examined in four experimental tumor systems in mice. Lymphocytic leukemia P388 and Lewis lung carcinoma were implanted intraperitoneally into BDF1 mice of either sex at an inoculum size of 3×10^5 and 5×10^5 cells per mouse, respectively. Sarcoma 180 ascites tumor was inoculated intraperitoneally into male dd-strain mice with […] per mouse. Melanotic melanoma B16 was implanted subcutaneously into BDF1 mice with 5×10^5 cells per mouse. Twenty-four hours after the implantation of tumor cells, graded doses of test compounds were administered to mice intraperitoneally in an injection volume of 0.2 ml. per 10 grams of body weight. Test compounds were given once daily for 9 days (qd 1→9 schedule) except for the mice inoculated with Lewis lung carcinoma which were treated for 11 days (qd 1→11). Death or survival of the treated and non-treated (control) animals was recorded daily during the observation period of 45 days after the implantation of tumor cells, and the median survival time was calculated for each of the test (T) and control (C) groups. […] The actual dose giving a T/C of 125% was estimated by linear regression analysis and defined as the effective dose 125 or ED125. The effective dose 150 (ED150) was employed for the evaluation of antitumor effect against Sarcoma 180. In the B16 melanoma experiment the tumor size was measured on day 16 after tumor inoculation, and the dose giving 50% inhibition of tumor growth (ID50) was calculated from regression lines.
(§3) The antitumor therapeutic index was calculated for each derivative from the ratio of toxicity and antitumor activity.

Another series concerns Sarcoma 180. The series can be described thus: animal or person. Type of series: in vivo, dd-strain mice. Conditions: copper-chelated form unless otherwise stated.
Excerpt: as §2, §3

Series [7] can be described thus: Acute toxicity, single dose LD50. Type of series: in vivo, dd mice. The note with it: ip, 30 days observation, copper-chelated form unless otherwise stated. Here is the method:
Graded doses of test compounds were administered intraperitoneally to groups of dd mice. The injection was given one time only or once daily for 9 consecutive days. Death or survival of the animals was recorded for 30 days after the last dose of test compound to calculate the single or multiple median lethal dose (LD50).

Series [8] relates to Lymphocytic leukemia P388. The series can be described thus: animal or person. Type of series: in vivo, BDF1 mice. The note with it: copper-chelated form unless otherwise stated; for Antitumor activity P388 (ED125): ip, once daily 9 days, dose giving T/C survival of 125%; for Antitumor therapeutic index P388: single dose LD50/ED125.
Excerpt: as §2, §3

Where only a bound is given, the exact number is not on record here.

Consider `Cc1c(N)nc([C@H](CC(N)=O)NC[C@H](N)C(N)=O)nc1C(=O)N[C@H](C(=O)N[C@H](C)[C@@H](O)CC(=O)N[C@H](C(=O)NC(O[C@@H]1O[C@@H](C)[C@@H](N)[C@@H](O)[C@H]1O)C(O)c1nc(-c2nc(C(=O)NCCCC(N)CC(=O)NCCCNCCCCN)cs2)cs1)[C@@H](C)O)[C@H](O[C@@H]1O[C@@H](CO)[C@@H](O)[C@H](O)[C@@H]1O[C@H]1O[C@H](CO)[C@@H](O)[C@H](OC(N)=O)[C@@H]1O)c1c[nH]cn1` (stereo partly drawn) [Tallysomycin A, reference compound], for which the “minimum inhibitory concentration (MIC)” value stood at 1.6 in series [1]; 0.4 in the series with Proteus mirabilis A9554; 0.2 in the series with Mycobacterium 607; 0.05 with Escherichia coli NIHJ; 0.1 in series [2]; 12.5 in series [3]. The “minimum inhibitory concentration (MIC)” value with Sarcina lutea PCI1001 is reported as 0.05; in [4], less than 0.003. For the same compound, in [5], the Antibacterial potency is 1,000 μ/mg. In series [6], the “ILB activity (minimum inducible concentration)” value (shortened to “ILB activity”) came to 0.00125 µg/mL.
In the case of `Cc1c(N)nc(C(CC(N)=O)NCC(N)C(N)=O)nc1C(=O)NC(C(=O)NC(C)C(O)CC(=O)NC(C(=O)NC(OC1OC(C)C(N)C(O)C1O)C(O)c1nc(-c2nc(C(=O)NCCCC(N)CC(=O)NCCCNC(C)c3ccccc3)cs2)cs1)C(C)O)C(OC1OC(CO)C(O)C(O)C1OC1OC(CO)C(O)C(OC(N)=O)C1O)c1c[nH]cn1` (stereo not drawn) [Tallysomycin S14a], the “minimum inhibitory concentration (MIC)” value was found to be 3.1 in series [1]; 3.1 with Proteus mirabilis A9554; 0.1 in the series with Mycobacterium 607; 0.2 in the series on Escherichia coli NIHJ; 0.8 in series [2]; 50 in series [3]. Moreover, the figures for the “minimum inhibitory concentration (MIC)” value (in the series with Sarcina lutea PCI1001; in [4]) were 0.8 and 0.1, respectively. Besides, the Antibacterial potency in series [5] is recorded as 1,300 μ/mg. Besides, in series [6], the “ILB activity” value was 0.01 µg/mL.
As for `Cc1c(N)nc(C(CC(N)=O)NCC(N)C(N)=O)nc1C(=O)NC(C(=O)NC(C)C(O)CC(=O)NC(C(=O)NC(OC1OC(C)C(N)C(O)C1O)C(O)c1nc(-c2nc(C(=O)NCC(O)CN)cs2)cs1)C(C)O)C(OC1OC(CO)C(O)C(O)C1OC1OC(CO)C(O)C(OC(N)=O)C1O)c1c[nH]cn1` (stereo not drawn) [Tallysomycin S4b], the “Antitumor activity B16 (ID50)” value in the series on Melanotic melanoma B16 (ip, once daily 9 days, 50% inhibition of tumor growth, day 16, 23040 min) worked out at 0.50 mg/kg/day. For the same compound, the “Antitumor therapeutic index B16” value in the series with Melanotic melanoma B16 (single dose LD50/ID50) is reported as 26. Also, the “Antitumor activity S180 (ED150)” value in the series on Sarcoma 180 (ip, once daily 9 days, effective dose 150, survival) amounted to 0.13 mg/kg/day. For the same compound, in the series on Sarcoma 180 (single dose LD50/ED150), the “Antitumor therapeutic index S180” value came out at 100. For the same compound, the “minimum inhibitory concentration (MIC)” value in series [1] was determined as 0.8; in the series with Proteus mirabilis A9554 it was 0.4; in the series on Mycobacterium 607, 0.003; in the series with Escherichia coli NIHJ it was 0.4; in series [2] it was 0.8; in series [3], 25. The entries for the “minimum inhibitory concentration (MIC)” value (in the series on Sarcina lutea PCI1001; in series [4]) were 3.1 and 0.006, respectively. This compound also gave an LD50 single dose in [7] of 13 mg/kg/day. The compound further displayed an Antibacterial potency in series [5] of 405 μ/mg. For the same compound, the “Antitumor activity P388 (ED125)” value in [8] is reported as more than 3.0 mg/kg/day. The “Antitumor therapeutic index P388” value in series [8] is on record as less than 4.
`CNCCCNC(=O)CC(N)CCCNC(=O)c1csc(-c2csc(C(O)C(NC(=O)C(NC(=O)CC(O)C(C)NC(=O)C(NC(=O)c3nc(C(CC(N)=O)NCC(N)C(N)=O)nc(N)c3C)C(OC3OC(CO)C(O)C(O)C3OC3OC(CO)C(O)C(OC(N)=O)C3O)c3c[nH]cn3)C(C)O)OC3OC(C)C(N)C(O)C3O)n2)n1` (stereo not drawn) [Tallysomycin S11a]: the “minimum inhibitory concentration (MIC)” value is given as 0.8 in [1]; 0.2 in the series with Proteus mirabilis A9554; 0.1 with Mycobacterium 607; 0.1 with Escherichia coli NIHJ; 0.8 in series [2]; 1.6 in series [3]. For the same compound, the “minimum inhibitory concentration (MIC)” value is reported as 0.2 with Sarcina lutea PCI1001 and 0.025 in series [4]. In series [7], this compound returned an LD50 single dose of 18 mg/kg/day. The compound further had an Antibacterial potency in series [5] of 570 μ/mg. The “Antitumor activity P388 (ED125)” value in series [8] was determined as 0.60 mg/kg/day. In addition, the “Antitumor therapeutic index P388” value in series [8] stood at 30. In addition, the “ILB activity” value in [6] turned out to be 0.08 µg/mL.
Consider `Cc1c(N)nc(C(CC(N)=O)NCC(N)C(N)=O)nc1C(=O)NC(C(=O)NC(C)C(O)CC(=O)NC(C(=O)NC(OC1OC(C)C(N)C(O)C1O)C(O)c1nc(-c2nc(C(=O)NCCCC(N)CC(=O)NCCCN(CCO)CCO)cs2)cs1)C(C)O)C(OC1OC(CO)C(O)C(O)C1OC1OC(CO)C(O)C(OC(N)=O)C1O)c1c[nH]cn1` (stereo not drawn) [Tallysomycin S8a], for which the “minimum inhibitory concentration (MIC)” value was found to be 0.8 in series [1]; 0.4 in the series with Proteus mirabilis A9554; 0.1 with Mycobacterium 607; 0.1 in the series on Escherichia coli NIHJ; 0.2 in series [2]; 12.5 in [3]. Besides, the “minimum inhibitory concentration (MIC)” value in the series on Sarcina lutea PCI1001 is reported as 0.4; in series [4], 0.006. Further, in [7], the LD50 single dose is on record as 42 mg/kg/day. The compound also returned an Antibacterial potency in series [5] of 550 μ/mg. Moreover, the “Antitumor activity P388 (ED125)” value in series [8] is 0.78 mg/kg/day. Further, the “Antitumor therapeutic index P388” value in series [8] amounted to 54. In series [6], the “ILB activity” value came out at 0.005 µg/mL.
In the case of `Cc1c(N)nc([C@H](CC(N)=O)NC[C@@H](N)C(N)=O)nc1C(=O)N[C@H](C(=O)N[C@H](C)[C@@H](O)CC(=O)N[C@@H](C(=O)NC(O[C@@H]1O[C@@H](C)[C@@H](N)[C@@H](O)[C@H]1O)C(O)c1nc(-c2nc(C(=O)NCCCNCCCCN)cs2)cs1)[C@@H](C)O)C(O[C@@H]1O[C@@H](CO)[C@H](O)[C@@H](O)[C@@H]1O[C@H]1O[C@H](CO)[C@@H](O)[C@@H](OC(N)=O)[C@@H]1O)c1cnc[nH]1` (stereo partly drawn) [Tallysomycin B, reference compound], the “minimum inhibitory concentration (MIC)” value in [1] turned out to be 0.8; in the series with Proteus mirabilis A9554, 0.2; in the series on Mycobacterium 607, 0.2; with Escherichia coli NIHJ it was 0.2; in [2] it was 0.4; in [3], 6.3. Besides, the “minimum inhibitory concentration (MIC)” value in the series on Sarcina lutea PCI1001 came out at 0.4; in [4], 0.006. The Antibacterial potency in [5] stood at 900 μ/mg. The “ILB activity” value in [6] worked out at 0.01 µg/mL.
